We go through 1 compound from patent publication US20160320368A1, “METHOD AND APPARATUS FOR PREDICTING EFFECTIVE DOSE OR SENSITIVITY OF 5-HYDROXY-1H-IMIDAZOLE-4-CARBOXAMIDE, METHOD FOR DETERMINING AMOUNT OF XANTHOSINE MONOPHOSPHATE, AND TREATMENT AGENT AND METHOD FOR TREATING MYELODYSPLASTIC SYNDROME” (FUJIFILM Corporation, priority 2014, published 2016).

Read-outs that look alike come from different tables or passages of the source.

In test [1] the test system is XMP in blood cells after hemolysis. Kind of test: XMP in blood cells after hemolysis (Example 5). Type of test: cell-based. The settings on record: Homo sapiens, 37° C., 8 hours, non-treated = 100%; for XMP amount (% of non-treated) at 1 µg/mL: Compound A 1 μg/mL; for XMP amount (% of non-treated) at 3 µg/mL: Compound A 3 μg/mL; for XMP amount (% of non-treated) at 10 µg/mL: Compound A 10 μg/mL; for XMP amount (% of non-treated) at 30 µg/mL: Compound A 30 μg/mL; for XMP amount (% of non-treated) at 100 µg/mL: Compound A 100 μg/mL. On the procedure: A ¾ hydrate of Compound A was used s a test compound.
450 μL of the blood collected from two healthy individuals by heparinized blood collection (Analyte A and Analyte B) was added to each tube, and 50 μL of a PBS solution of the test compound (0 μg/mL, 10 μg/mL, 30 μg/mL, 100 μg/mL, 300 μg/mL, or 1000 μg/mL in terms of Compound A) for each concentration was added to each tube. The reaction mixture was stirred in an incubator at 37° C. for 8 hours.
BD Pharm Lyse (555899, manufactured by Becton, Dickinson and Company, Inc.) was added to the blood sample obtained in (1) (2 mL of BD Pharm Lyse was added relative to 0.2 mL of blood). After stirring with a vortex mixer, the reaction solution was protected from light and allowed to stand at room temperature for 15 min. After centrifugation at 20° C. and 1000×g for 5 min, the supernatant was removed and suspended in 10 mL of PBS. After centrifugation at 4° C. and 1000×g for 5 min, the supernatant was removed, and 1000 μL of methanol was added to each tube, followed by stirring. Thereafter, 500 μL of ultrapure water was added thereto, followed by further stirring. 600 μL of the reaction solution was divided into each of two tubes, and 400 μL of chloroform was added to each tube. The reaction solution was stirred and then centrifuged at 4° C. and 10000×g for 15 min. 400 μL of the aqueous phase was recovered and added to an ultrafiltration tube (UltrafreeMC-PLHCC 250/pk for Metabolome Analysis (manufactured by Human Metabolome Technologies)), followed by centrifugation at 12° C. and 9200×g for 2 hours. The filtrates were combined and then dried under reduced pressure at 40° C. for 2 hours by using a centrifugal evaporator. After drying, the resulting product was stored in a freezer at −80° C.
The samples obtained in (2-1) and (2-2) were returned to room temperature and 40 μL of ultrapure water was added to each sample. The mixture was stirred and centrifuged at 4° C. and 21500×g for 5 min. 35 μL of the supernatant was transferred to a vial. After storage at 4° C., XMP in samples was determined in the LC-MS/MS determination instrument, LC conditions and MS/MS conditions described in Example 3 (3).
(§1) Amounts of XMP (%) were calculated assuming that amounts of XMP in a non-Compound A treated group are defined as 100%.

The test system of test [2] is XMP in blood cells. Kind of test: XMP in blood cells of mice after oral administration. The settings on record: 100 mg/kg oral, non-treated = 100%. Type of test: in vivo, female mice (BALB/cAJcl). On the procedure:
(§2) A ¾ hydrate of Compound A was used as a test compound.
0.5% MC or 0.5% MC of the test compound (100 mg/kg in terms of Compound A) was orally administered to female mice (BALB/cAJcl).
Whole blood was collected from the postcava of animals under anesthesia by isoflurane inhalation at 1, 4, 8 or 24 hours post-dose, using a polypropylene syringe treated with an ethylenediaminetetraacetic acid disodium salt and a 25 gauge injection needle. BD Pharm Lyse (555899, manufactured by Becton, Dickinson and Company, Inc.) was added to the blood (2 mL of BD Pharm Lyse was added relative to 0.2 mL of blood). After stirring with a vortex mixer, the reaction solution was protected from light and allowed to stand at room temperature for 15 min. After centrifugation at 20° C. and 1000×g for 5 min, the supernatant was removed and suspended in 10 mL of a PBS solution. After centrifugation at 4° C. and 1000×g for 5 min, the supernatant was removed, and 1000 μL of methanol was added to each tube, followed by stirring. Thereafter, 500 μL of ultrapure water was added thereto, followed by further stirring. 600 μL of the reaction solution was divided into each of two tubes, and 400 μL of chloroform was added to each tube. The reaction solution was stirred and then centrifuged at 4° C. and 10000×g for 15 min. 400 μL of the aqueous phase was recovered and added to an ultrafiltration tube, followed by centrifugation at 12° C. and 9200×g for 2 hours. The filtrates were combined and then dried under reduced pressure at 40° C. for 2 hours by using a centrifugal evaporator. After drying, the resulting product was stored in a freezer at −80° C.
The samples obtained in (2-1) and (2-2) were returned to room temperature, and 40 μL of ultrapure water was added to the hemolysis sample and 150 μL of ultrapure water was added to the bone marrow sample. The mixture was stirred and then centrifuged at 4° C. and 21500×g for 5 min. For the hemolysis sample, 35 μL of the supernatant was transferred to a vial. For the bone marrow sample, 140 μL of the supernatant was transferred to a vial. After storage at 4° C., XMP in samples was determined in the LC-MS/MS determination instrument, LC conditions and MS/MS conditions described in Example 3 (3).
as §1

Test [3] relates to human myeloid leukemia cell line SKM-1. The test is described as follows: Cell growth inhibitory activity (CellTiter-Glo, 72 hours). The settings on record: SKM-1, 72 hours. Type of test: cell-based. As to the method:
as §2
SKM-1 (available from National Institute of Biomedical Innovation JCRB Cell Bank) was used as a human myeloid leukemia cell line.
90 μL (5000 cells) of the human myeloid leukemia cell line SKM-1 was seeded onto a 96-well plate. 10 μL of a PBS solution of the test compound (0 μmol/L, 1 μmol/L, 3 μmol/L, 10 μmol/L, 30 μmol/L, 100 μmol/L, 300 μmol/L, 1000 μmol/L, 3000 μmol/L, or 10000 μmol/L in terms of Compound A) was added to the plate which was then incubated in 5% CO2 at 37° C. for 72 hours. 100 μL of CellTiter-Glo (manufactured by Promega) was added to each well to prepare a cell lysate.
The relative value of chemiluminescence intensity was calculated by a plate reader.

The mark [4] stands for this setting: read-out: Amount of XMP (%) Analyte A Hemolysis.
Setting [5] is: read-out: Amount of XMP (%) Analyte B Hemolysis.

In general, IC50 refers to the midpoint of a concentration-inhibition curve. Low readings indicate greater potency in that assay, high ones weaker potency in that assay. Take `NC(=O)c1nc[nH]c1O` [Compound A, 5-Hydroxy-1H-imidazole-4-carboxamide]: the values for the XMP amount (% of non-treated) at 1 µg/mL in test [1] (setting [4]) and in test [1] (setting [5]) were 60% and 51%, respectively. The XMP amount (% of non-treated) at 3 µg/mL in test [1] (setting [4]) was 45%; in test [1] (setting [5]), 37%. The results for the XMP amount (% of non-treated) at 10 µg/mL in test [1] (setting [4]) and in test [1] (setting [5]) were 37% and 25%, respectively. In addition, the XMP amount (% of non-treated) at 30 µg/mL in test [1] (setting [4]) worked out at 27%; in test [1] (setting [5]) it was 18%. Moreover, the XMP amount (% of non-treated) at 100 µg/mL in test [1] (setting [4]) stood at 16%; in test [1] (setting [5]), 10%. The “Amount of XMP (%) Blood cell” value in test [2] (1 hr post-dose) is 3.4%; in test [2] (4 hr post-dose) it was 7.2%; in test [2] (8 hr post-dose), 26.4%; in test [2] (24 hr post-dose) it was 70.7%. In addition, the results for the IC50 in test [3] and in test [3] (in terms of Compound A) were 21.5 µM and 2.73 mg/L, respectively.
